Reference: ChEMBL document CHEMBL5154700, “Discovery of Gut-Restricted Small-Molecule Inhibitors of Intestinal Sodium-Dependent Phosphate Transport Protein 2b (NaPi2b) for the Treatment of Hyperphosphatemia” (J Med Chem, 2022)
pIC50: −log10 of the molar value. ≈ marks a conversion by molar mass, not a printed value.

Columns and labels:
[1] = Mean residence time in CRL:CD(SD) rat at 30 mg/kg, po measured after 7 hrs by LC-MS/MS analysis; assay type: ADME, organism-based; conditions: in vivo
[2] = Drug concentration in CRL:CD(SD) rat plasma at 30 mg/kg, po measured after 7 hrs by LC-MS/MS analysis; assay type: ADME, organism-based
[3] = molecular target: T1, Sodium-dependent phosphate transport protein 2B (Homo sapiens, UniProt O95436); experiment: Inhibition of human NaPi2b expressed in KJMGER8 cells assessed as reduction in H2[33P]O4 uptake incubated for 60 mins by TopCount scintillation counting method; assay type: cell-based
T1 sequence (O95436 whole entry): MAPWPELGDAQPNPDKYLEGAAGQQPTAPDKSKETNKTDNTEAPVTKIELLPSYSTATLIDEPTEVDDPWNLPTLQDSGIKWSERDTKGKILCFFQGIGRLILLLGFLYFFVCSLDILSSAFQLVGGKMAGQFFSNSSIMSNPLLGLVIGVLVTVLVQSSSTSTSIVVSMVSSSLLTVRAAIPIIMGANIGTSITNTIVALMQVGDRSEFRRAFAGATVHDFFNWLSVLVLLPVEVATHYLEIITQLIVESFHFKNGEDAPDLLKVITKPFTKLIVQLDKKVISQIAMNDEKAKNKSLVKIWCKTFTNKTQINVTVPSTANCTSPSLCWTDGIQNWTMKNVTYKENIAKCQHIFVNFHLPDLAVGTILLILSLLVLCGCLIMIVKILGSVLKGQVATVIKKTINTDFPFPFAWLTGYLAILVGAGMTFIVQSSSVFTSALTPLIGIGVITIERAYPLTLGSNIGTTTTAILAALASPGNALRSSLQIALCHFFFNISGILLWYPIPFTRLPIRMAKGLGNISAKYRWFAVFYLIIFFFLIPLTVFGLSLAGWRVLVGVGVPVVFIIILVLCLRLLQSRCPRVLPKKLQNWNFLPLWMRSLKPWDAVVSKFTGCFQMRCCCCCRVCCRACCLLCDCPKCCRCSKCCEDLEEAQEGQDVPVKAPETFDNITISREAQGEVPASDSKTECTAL

[4] = Oral bioavailability in CRL:CD(SD) rat at 30 mg/kg measured after 7 hrs by LC-MS/MS analysis; assay type: ADME, organism-based; conditions: in vivo
[5] = Half life in CRL:CD(SD) rat at 30 mg/kg, po measured after 7 hrs by LC-MS/MS analysis; assay type: ADME, organism-based; conditions: in vivo
[6] = Cmax in CRL:CD(SD) rat at 30 mg/kg, po measured after 7 hrs by LC-MS/MS analysis; assay type: ADME, organism-based; design: dose 30 mg/kg, time 7 hrs, route po; conditions: in vivo
[7] = Inhibition of phosphate uptake in CRL:CD(SD) rat small intestine in at 0.1 mg treated through intrajejunal after 30 mins by In-situ closed-loop method; conditions: in vivo, other, 0.5 h
[8] = Passive permeability of the compound across apical to basolateral at 100 uM incubated for 5 hrs by PAMPA assay; assay type: ADME; conditions: read-out: permeability
[9] = Solubility of compound in phosphate buffer at pH 7.4; assay type: physicochemical
[10] = Drug concentration in CRL:CD(SD) rat lung at 30 mg/kg, po measured after 7 hrs by LC-MS/MS analysis; assay type: ADME, organism-based; conditions: read-out: Ct
[11] = AUC(0 to infinity) in CRL:CD(SD) rat at 30 mg/kg, po measured after 7 hrs by LC-MS/MS analysis; assay type: ADME, organism-based; design: dose 30 mg/kg, time 7 hrs, route po; conditions: in vivo
[12] = AUC (0 to t) in CRL:CD(SD) rat at 30 mg/kg, po measured after 7 hrs by LC-MS/MS analysis; assay type: ADME, organism-based; design: time 7 hrs, dose 30 mg/kg, route po; conditions: in vivo
[13] = Ratio of drug level in lung to plasma in CRL:CD(SD) rat at 30 mg/kg, po measured after 7 hrs by LC-MS/MS; assay type: ADME, organism-based; conditions: lung and plasma
[14] = Drug concentration in CRL:CD(SD) rat lung at 30 mg/kg, po measured after 6 hrs by LC-MS/MS analysis; assay type: ADME, organism-based; conditions: read-out: Ct
[15] = Oral bioavailability in CRL:CD(SD) rat at 10 mg/kg by LC-MS/MS analysis; assay type: ADME, organism-based; conditions: in vivo
[16] = AUC (0 to t) in CRL:CD(SD) rat at 10 mg/kg, po by LC-MS/MS analysis; assay type: ADME, organism-based; design: dose 10 mg/kg, route po; conditions: in vivo
[17] = Cmax in CRL:CD(SD) rat at 10 mg/kg, po by LC-MS/MS analysis; assay type: ADME, organism-based; design: dose 10 mg/kg, route po; conditions: in vivo
[18] = Drug concentration in CRL:CD(SD) rat plasma at 30 mg/kg, po measured after 6 hrs by LC-MS/MS analysis; assay type: ADME, organism-based

| Structure (SMILES) | pIC50 [3] | Papp at 5 h, 100 µM [8] | solubility [9] | Kp at 7 h [13] | also measured |
| --- | --- | --- | --- | --- | --- |
| O=C(Nc1sc2c(c1C(=O)N/N=C/c1ccc(Cl)c(C(F)(F)F)c1)CCCC2)c1cccc(CN2CCC(O)CC2)c1 | 7.06 |  | 0.1 µM (≈ 0.0619 µg/mL) |  |  |
| CCN(CC)CCCN(C)Cc1cccc(C(=O)Nc2sc3c(c2C(=O)N/N=C/c2ccc(Cl)c(C(F)(F)F)c2)CCN(C2CC2)C3)c1 |  |  |  |  | concentration at 6 h [14]: 6350 ng/g; bioavailability [15]: 0.96%; AUC(0-t) [16]: 10.4 ng·h/mL; Cmax [17]: 3.59 ng/mL; concentration at 6 h [18]: 1.86 ng/mL |
| CCN(CC)C[C@@H](O)COCCOCCOCCOc1cccc(C(=O)Nc2sc3c(c2C(=O)N/N=C/c2ccc(Cl)c(C(F)(F)F)c2)CCC(C)(C)C3)c1 |  |  |  | 428 |  |
| CCN(CC)CCOCCOCCOc1cccc(C(=O)Nc2sc3c(c2C(=O)N/N=C/c2ccc(Cl)c(C(F)(F)F)c2)CCN(C2CC2)C3)c1 | 6.50 | 0.23 ×10⁻⁶ cm/s | 82 µM (≈ 61.5 µg/mL) |  |  |

The next lines start with results.

| pIC50 [3] | Papp at 5 h, 100 µM [8] | solubility [9] | Kp at 7 h [13] | Structure (SMILES) | also measured |
| --- | --- | --- | --- | --- | --- |
| 7.19 | < 0.025 ×10⁻⁶ cm/s | 122 µM (≈ 115 µg/mL) |  | COCCN(CCOCCOCCOCCOCCOCCOCc1cccc(C(=O)Nc2sc3c(c2C(=O)N/N=C/c2ccc(Cl)c(C(F)(F)F)c2)CCC(C)(C)C3)c1)CC(=O)O | MRT [1]: 5.25 h; concentration at 7 h [2]: < 0.3 ng/mL; bioavailability [4]: 0.1%; half-life [5]: 3.53 h; Cmax [6]: 0.444 ng/mL; inhibition (INH) [7]: 17%; concentration at 7 h [10]: < 1.5 ng/g; AUC(0-inf) [11]: 2.62 ng·h/mL; AUC(0-t) at 7 h [12]: 0.665 ng·h/mL |
| 7.40 | < 0.025 ×10⁻⁶ cm/s | 55 µM (≈ 40.6 µg/mL) | 130 | CCN(CC)CCOCCOCCOc1cccc(C(=O)Nc2sc3c(c2C(=O)N/N=C/c2ccc(Cl)c(C(F)(F)F)c2)CCC(C)(C)C3)c1 |  |
| 7.08 |  | 76 µM (≈ 64.1 µg/mL) | 44 | CC1(C)CCc2c(sc(NC(=O)c3cccc(OCCOCCOCCOC[C@H](O)CN(CCO)CCO)c3)c2C(=O)N/N=C/c2ccc(Cl)c(C(F)(F)F)c2)C1 |  |
